Key:
HEK293T cells = assay: CTG cell viability assay; type: cell-based; settings: broad concentration range, 70 h
Procedure: (§1) U937, Jurkat, and HEK293T cells were plated with a density of 10^5 cells/ml, with 50 μl/well in a white 384 well plate (Corning #3570). Two hours after plating, XY-07-035 was dispensed to each well using HPd300e and incubated at 37 °C for 70 h. CellTiter-Glo (CTG) Luminescent Cell Viability Assay (Promega #G7572) was then used to measure cell viability. Aliquoted frozen CTG reagent and cell plates were warmed to room temperature prior to loading. After the plates were cooled to room temperature, the CTG reagent was loaded 15 μl/well with an electronic multichannel pipette. […] The luminescence signal was read over ten cycles for each data point on a PHERAstar FS microplate reader (BMG Labtech). The Relative abundance was calculated as the sum of the averages of duplicate individual 12-point dose-response data points.
(§2) Supplementary file mmc1.pdf: Supporting Figure S1 BMDM cells were primed by LPS (1 μg/ml) for 4 hrs and then challenged with 20 μM nigericin. 50 μl supernatant was collected every 15 min (up to 90 min) and mIL-1β level was determined by HTRF assay. […] DARPin F10 was detected by anti-HA antibody. […] Cells were treated with different concentrations of the degrader, and cell viability determined by CTG assay was normalized to the non-treated group. […] Supporting Figure S4: Cell viability was measured by resazurin assay, and fluorescence intensity was a representative of the viability.

Jurkat cells = assay: CTG cell viability assay; type: cell-based; settings: broad concentration range, 70 h
Procedure: as §1, §2

NLRP3 inflammasome = assay: IL-1β release in PBMCs after NLRP3 inflammasome activation; type: cell-based, human; settings: for effect on IL-1β release (in words): all stimulatory conditions (MSU, nigericin, ATP), vs DMSO; for IL-1β reduction as compared to DMSO: compound 24 h, LPS 0.2 ng/ml 4 h
Procedure: Figure 3 Effect of […] mediated HDAC6 degradation on NLRP3 inflammasome activation in PBMCs.A, schematic of the mode of action of an HDAC6 degrader. The PROTAC engages both HDAC6 and the E3 ligase cereblon (CRBN), which then leads to ubiquitination and degradation of HDAC6. […] PBMCs (without or with LPS priming for 4 h) were treated with the indicated compounds and HDAC6 levels were detected by immunoblotting with an anti-HDAC6 antibody. Detection of actin was used as a control for loading. CGP, CGP084892 (Caspase-1 inhibitor); AFN700 is an inhibitor of the NF-kB pathway (IKK inhibitor). E, HDAC6 degradation impact on IL-1β release in PBMCs following MSU 200 μg/ml (5 h), nigericin 2 μM (2 h) or ATP 3 mM (0.5 h) treatment. Cells were first primed with 0.2 ng/ml LPS for 4 h at 37 °C, then treated with MSU, nigericin, and ATP as indicated.
Human IL-1β and IL-18 were determined with Cisbio HTRF Cisbio Human IL1β (#62HIL1BPET) and Human IL18 (#62HIL18PEG) protocols. All the data were from 3 or 4 independent biological replicates.
For BMDM cells, 1.5 × 10^6 cells per well were seeded in six-well plates. After priming with 1 μg/ml LPS (Invivogen #tlrl-b5lps), cells were challenged with 200 μg/ml MSU crystals (Invivogen #tlrl-msu-25) for 6 h or 20 μM nigericin (Sigma-Aldrich #N7143-5MG) for 30 min. […] The supernatant was removed, and fresh medium was added to have cells at a density of around 5 × 10^5 cells/ml. 100 μl cells were seeded in 96-well plate and incubated for 1∼2 days. During the culturing, dTAG was added when needed to degrade the DARPin. […] For PBMCs, 3 × 10^4 cells per were seeded, and primed with 0.2 ng/ml LPS for 4 h and then incubated with MSU 200 μg/ml (5 h), nigericin 2 μM (2 h) or ATP 3 mM (0.5 h). For pyrin inflammasome, U937-pyrin cells were seeded in 96 well after 0.5 μM PMA treatment for 3 h and then challenged by BAA473 (200 μM) for 4 h at 37 °C.

pyrin inflammasome = assay: IL-18 release in U937-pyrin cells after BAA473 activation; type: cell-based, human; settings: BAA473 200 μM 4 h, vs DMSO or XY-07-191 control
Procedure: Cells were treated with the indicated compounds and HDAC6 was detected by immunoblotting with an anti-HDAC6 antibody. Detection of actin was used as a control for protein loading. […] Pyrin inflammasome was activated by BAA473 (200 μM) for 4 h at 37 °C. […] The graph at the bottom presents IL-18 release based on four independent experiments.

| SMILES | cellular toxicity (HEK293T cells) | cellular toxicity (Jurkat cells) | effect on IL-1β release (in words) (NLRP3 inflammasome) | IL-1β reduction as compared to DMSO (NLRP3 inflammasome; ATP 3 mM 0.5 h) | IL-1β reduction as compared to DMSO (NLRP3 inflammasome; MSU 200 μg/ml 5 h) | IL-1β reduction as compared to DMSO (NLRP3 inflammasome; nigericin 2 μM 2 h) | change in IL-18 secretion (pyrin inflammasome) |
| --- | --- | --- | --- | --- | --- | --- | --- |
| CN(C(=O)CCCNc1cccc2c1C(=O)N(C1CCC(=O)NC1=O)C2=O)c1ccc(NC(=O)CCCCCCC(=O)NO)cc1 (centres unmarked) [XY-07-35] | does not show cellular toxicity | does not show cellular toxicity | clearly reduced | 40% | ca. 60% | 40% | did not result in any change |
| CN1C(=O)CCC(N2C(=O)c3cccc(NCCCC(=O)N(C)c4ccc(NC(=O)CCCCCCC(=O)NO)cc4)c3C2=O)C1=O (centres unmarked) [XY-07-191] | – | – | partial inhibition | – | – | – | – |
